{
  "source": "patent US11547761B1",
  "about": "“Antibody adjuvant conjugates” (The Board of Trustees of the Leland Stanford Junior …, priority 2016, dated 2023)",
  "key": {"[1]": {"test_system": "human APCs (myeloid cells)", "assay": "Cytokine secretion from human APCs / myeloid cells (cell free supernatants)", "assay_type": "cell-based", "details": "18 hours", "protocol": "After 18 hours, cell free supernatants were analyzed for cytokine secretion via cytokine bead arrays; n=3. P-values≤0.05 depicted by *, P-values≤0.01 depicted by **, P-values≤0.001 depicted by ***, P-values≤0.0001 depicted by ****.\n2×10^5 APCs were incubated with or without 6.5×10^5 autologous or allogeneic CFSE-labeled tumor cells in 96-well plates (Corning) containing IMDM medium (Gibco) supplemented with 10% fetal bovine serum, 100 U/mL penicillin, 100 μg/mL streptomycin, 2 mM L-glutamine, sodium pyruvate, non-essential amino acids, 50 μM 2-ME and, where indicated, various concentrations of anti-tumor antibody and the indicated adjuvants. […]\nWhile the expression of T cell stimulatory molecules such as CD40, CD86 and HLA-DR is necessary for effective T cell activation, APCs also influence the nature of the ensuing immune response through the secretion of cytokines. Therefore, the capacity of immunoconjugates to elicit cytokine secretion in human APCs following stimulation was investigated as described above.\nThe capacity of these immunoconjugates to elicit cytokine secretion in human APCs following stimulation was investigated as described in Example 3 above.\n2×10^5 APCs were incubated with or without 6.5×10^5 allogeneic CFSE-labeled tumor cells in 96-well plates (Corning) containing IMDM medium (Gibco) supplemented with 10% fetal bovine serum, 100 U/mL penicillin, 100 μg/mL streptomycin, 2 mM L-glutamine, sodium pyruvate, non-essential amino acids and, where indicated, various concentrations of unconjugated CD20 antibody, and immunoconjugates of the invention were prepared according to the examples above. […]"}, "[2]": {"target": "protein A (Staphylococcus aureus, UniProt P38507)", "details": "50 ug/ml in PBS, overnight, SDS-PAGE of beads and supernatants", "protocol": "Beads were pelleted by centrifugation, supernatant was removed, and residual liquid was removed from the beads using a fine pipette tip. Non-reducing Laemmli sample buffer (100 ul) was added to the beads. Beads and supernatants were heated to 90° C. for 5 minutes and equal fractions were analyzed by SDS-PAGE (4-12% NUPAGE gel, MOPS buffer) followed by staining with Coomassie (GelCode™ Blue, ThermoFisher). Molecular weight standard is SeeBlue® Plus 2 marker (ThermoFisher LC5925)."}, "[3]": {"target": "T1, recombinant human CD64 protein (Homo sapiens, UniProt P12314)", "T1 construct": "purchased R&D Systems", "T1 sequence (P12314 16-374)": "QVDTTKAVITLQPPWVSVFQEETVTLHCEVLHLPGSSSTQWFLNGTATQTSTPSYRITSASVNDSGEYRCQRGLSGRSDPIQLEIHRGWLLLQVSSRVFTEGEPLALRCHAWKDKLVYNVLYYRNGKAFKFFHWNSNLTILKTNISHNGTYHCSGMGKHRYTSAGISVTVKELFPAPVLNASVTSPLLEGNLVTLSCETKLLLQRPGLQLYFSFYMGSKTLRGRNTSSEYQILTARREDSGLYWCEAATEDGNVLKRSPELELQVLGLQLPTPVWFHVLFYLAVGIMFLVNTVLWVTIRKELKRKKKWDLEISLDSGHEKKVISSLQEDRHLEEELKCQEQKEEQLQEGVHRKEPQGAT", "assay": "ELISA binding to CD64", "details": "titration", "protocol": "Maxysorp ELISA plates were coated overnight with 1.5 ug/ml recombinant human CD64 protein (R&D Systems). Plates were blocked with PBS containing 1% BSA, and incubated with a titration of Rituximab or Rituximab immunoconjugates (Rituximab BB-01). Bound antibodies were detected with Peroxidase conjugated AffiniPure F(ab′)2 Fragment Goat Anti-Human IgG (Jackson) using TMB color development and absorbance at 450 nm was measured after stopping the reaction."}, "[4]": {"test_system": "human APCs (myeloid cells)", "assay": "APC-tumor co-culture / myeloid cell stimulation, surface markers by flow cytometry", "assay_type": "cell-based", "details": "18 hours of stimulation", "source_text": "(§1) Human antigen presenting cells (APCs) were negatively selected from human peripheral blood mononuclear cells obtained from healthy blood donors (Stanford Blood Center) by density gradient centrifugation using a RosetteSep Human Monocyte Enrichment Cocktail (Stem Cell Technologies) containing monoclonal antibodies against CD2, CD3, CD8, CD19, CD56, CD66b and CD235a. Immature APCs were subsequently purified to >97% purity via negative selection using an EasySep Human Monocyte Enrichment Kit without CD16 depletion containing monoclonal antibodies against CD2, CD3, CD19, CD20, CD56, CD66b, CD123 and CD235a.\nTumor cells were resuspended in PBS with 0.1% fetal bovine serum (FBS) at 1 to 10×10^6 cells/mL. Cells were subsequently incubated with 2 μM CFSE to yield a final concentration of 1 μM. The reaction was ended after 2 minutes via the addition of 10 mL complete medium with 10% FBS and washed once with complete medium. Cells were either fixed in 2% paraformaldehyde and washed three times with PBS or left unfixed prior to freezing the cells in 10% DMSO, 20% FBS and 70% medium.\n(§2) 2×10^5 APCs were incubated with or without 6.5×10^5 autologous or allogeneic CFSE-labeled tumor cells in 96-well plates (Corning) containing IMDM medium (Gibco) supplemented with 10% fetal bovine serum, 100 U/mL penicillin, 100 μg/mL streptomycin, 2 mM L-glutamine, sodium pyruvate, non-essential amino acids, 50 μM 2-ME and, where indicated, various concentrations of anti-tumor antibody and the indicated adjuvants. Cells and cell-free supernatants were analyzed after 18 hours via flow cytometry.\nas §1, with “[…]” for “CD2, CD3, CD8, CD19, CD56, CD66b”, “[…].” for “CD235a.”, “CD14, CD16, CD40, CD86, CD123,” for “CD2, CD3, CD19, CD20, CD56, CD66b, CD123”\nas §2, with “antibody.” for “anti-tumor antibody and the indicated adjuvants.”\n2×10^5 APCs were incubated with or without 6.5×10^5 allogeneic CFSE-labeled tumor cells in 96-well plates (Corning) containing IMDM medium (Gibco) supplemented with 10% fetal bovine serum, 100 U/mL penicillin, 100 μg/mL streptomycin, 2 mM L-glutamine, sodium pyruvate, non-essential amino acids and, where indicated, various concentrations of unconjugated CD20 antibody, and immunoconjugates of the invention were prepared according to the examples above. Cells and cell-free supernatants were analyzed after 18 hours via flow cytometry or ELISA."}},
  "data": [
    {"substance": "Rituximab [reference compound]", "values": [
      {"measurement": "cytokine secretion (overall)", "setting": "[1]", "value": "do not"},
      {"measurement": "binding to protein A", "setting": "[2]", "value": "bind to protein A"},
      {"measurement": "binding to CD64", "setting": "[3]", "value": "comparable binding to CD64"},
      {"measurement": "CD86 upregulation on myeloid cells", "setting": "[4]; compared with the corresponding unconjugated antibody unless the value names another comparator", "value": "the control does not"},
      {"measurement": "APC / myeloid / dendritic cell activation (overall)", "setting": "[4]; listed as unconjugated CD20 antibody", "value": "do not"}
    ]}
  ]
}
